From patent US6780996B2, “Process for the preparation of 7-substituted-3 quinolinecarbonitriles” (Wyeth Holdings Corporation, priority 2002, dated 2004) come the findings set out here.

As a reminder, the melting point is the temperature, or range, at which the solid turns liquid. As to `CCN1CCN(CCCOc2cc3ncc(C#N)c(Nc4ccc(Sc5nccn5C)c(Cl)c4)c3cc2OCCOC)CC1` [Example 21, 4-({3-Chloro-4-[(1-methyl-1H-imidazol-2-yl)sulfanyl]phenyl}amino)-7-[3-(4-ethyl-1-piperazinyl)propoxy]-6-(2-methoxyethoxy)-3-quinolinecarbonitrile], the melting point lay within 188 to 190 °C.
With `COCCOc1cc2c(Nc3cc(OC)c(Cl)cc3Cl)c(C#N)cnc2cc1OCC1CCN(C)CC1` [Example 22, 4-[(2,4-Dichloro-5-methoxyphenyl)amino]-6-[2-methoxyethoxy]-7-[(1-methylpiperidine-4-yl)methoxy]3-quinolinecarbonitrile], the melting point lay within 153 to 155 °C.
`CCOc1cc2c(Nc3cc(OC)c(Cl)cc3Cl)c(C#N)cnc2cc1OCCOC` [Example 23, 4-[(2,4-Dichloro-5-methoxyphenyl)amino]-6-ethoxy-7-(2-methoxyethoxy)3-quinolinecarbonitrile] gave a melting point of 215 to 217 °C.
The molecule `CCCCOc1cc2c(Nc3cc(OC)c(Cl)cc3Cl)c(C#N)cnc2cc1OCCOC` [Example 24, 6-Butoxy-4-[(2,4-dichloro-5-methoxyphenyl)amino]-7-(2-methoxyethoxy)-3-quinolinecarbonitrile] showed a melting point of 166 to 167 °C.
Consider `COc1cc(Nc2c(C#N)cnc3cc(OCC4CCCCO4)c(OC)cc23)c(Cl)cc1Cl` (centres unmarked) [Example 25, 4-[(2,4-Dichloro-5-methoxyphenyl)amino]-6-methoxy-7-(tetrahydro-2H-pyran-2-ylmethoxy)3-quinolinecarbonitrile], for which the melting point fell in the range of 193 to 196 °C.
In the case of `COCCOc1cc2ncc(C#N)c(Nc3cc(OC)c(Cl)cc3Cl)c2cc1OCCN1CCOCC1` [Example 26, 4-[(2,4-Dichloro-5-methoxyphenyl)amino]-7-(2-methoxyethoxy)-6-(2-morpholin-4-ylethoxy)3-quinolinecarbonitrile] it was 158 to 159 °C; in that of `COc1cc2c(Nc3ccc(Sc4nccn4C)c(Cl)c3)c(C#N)cnc2cc1N1CCN(C)CC1` [Example 27, 4-[3-Chloro-4-(1-methyl-1H-imidazol-2-ylsulfanyl)-phenylamino]-6-methoxy-7-(4-methylpiperazin-1-yl)-quinoline-3-carbonitrile], 270 to 272 °C.
As for `COc1cc(Nc2c(C#N)cnc3cc(NCCCC4CCN(C)CC4)c(OC)cc23)c(Cl)cc1Cl` [Example 28, 4-[(2,4-Dichloro-5-methoxyphenyl)amino]-6-methoxy-7-{[3-(1-methylpiperidin-4-yl)propyl]amino}quinoline-3-carbonitrile], the melting point was 122 to 124 °C.
In turn, `COc1cc2c(Nc3ccc(Sc4nccn4C)c(Cl)c3)c(C#N)cnc2cc1NCCCN(C)C` [Example 29, 4-[3-Chloro-4-(1-methyl-1H-imidazol-2-ylsulfanyl)-phenylamino]-7-{[3-(dimethyl)aminopropyl]amino}-6-methoxyquinoline-3-carbonitrile] showed a melting point of 198 to 200 °C.
Regarding `COc1cc2c(Nc3ccc(Sc4nccn4C)c(Cl)c3)c(C#N)cnc2cc1N(C)CCCN(C)C` [Example 30, 4-[3-Chloro-4-(1-methyl-1H-imidazol-2-ylsulfanyl)-phenylamino]-7-{[3-(dimethylamino)propyl]-methylamino}-6-methoxyquinoline-3-carbonitrile], the melting point fell in the range of 196 to 201 °C.
Molecule `COCCOc1ccc2c(Nc3cc(OC)c(Cl)cc3Cl)c(C#N)cnc2c1` [Example 33, 4-[(2,4-Dichloro-5-methoxyphenyl)amino]-7-(2-methoxyethoxy)-3-quinolinecarbonitrile] returned a melting point of 182 to 183 °C.
With `COCCOc1ccc2c(Nc3ccc(Cl)cc3Cl)c(C#N)cnc2c1` [Example 34, 4-[(2,4-Dichlorophenyl)amino]-7-(2-methoxyethoxy)-3-quinolinecarbonitrile] the figure was 144 to 145 °C; with `COCCOc1cc2ncc(C#N)c(Nc3cc(OC)c(C)cc3C)c2cc1OC` [Example 37, 4-[(2,4-Dimethyl-5-methoxyphenyl)amino]-6-methoxy-7-(2-methoxyethoxy)quinoline-3-carbonitrile], 143 to 145 °C.
Molecule `COCCOc1cc2ncc(C#N)c(Nc3cc(OC)ccc3Cl)c2cc1OC` [Example 38, 4-[(2-Chloro-5-methoxyphenyl)amino]-6-methoxy-7-(2-methoxyethoxy)quinoline-3-carbonitrile] showed a melting point of 179 to 181 °C.
Molecule `COCCOc1cc2ncc(C#N)c(Nc3ccc(C)cc3C)c2cc1OC` [Example 40, 4-[(2,4-Dimethylphenyl)amino]-6-methoxy-7-(2-methoxyethoxy)quinoline-3-carbonitrile] came in with a melting point of 107 to 109 °C.
`COc1ccc(C)c(Nc2c(C#N)cnc3cc(OCCCC4CCN(C)CC4)c(OC)cc23)c1` [Example 48, 6-Methoxy-4-[(5-methoxy-2-methylphenyl)amino]-7-[3-(1-methylpiperidine-4-yl)propoxy]quinoline-3-carbonitrile] had a melting point of 163 to 166 °C.
As for `COc1cc2c(Nc3ccc(C)cc3C)c(C#N)cnc2cc1OCCCC1CCN(C)CC1` [Example 49, 4-[(2,4-Dimethylphenyl)amino]-6-methoxy-7-[3(1-methylpiperidine-4-yl)propoxy]quinoline-3-carbonitrile], the melting point was 159 to 162 °C.
For the molecule `CCN1CCC(COc2cc3ncc(C#N)c(Nc4cc(OC)c(Cl)cc4Cl)c3cc2OC)CC1` [Example 51, 4-[(2,4-Dichloro-5-methoxyphenyl)amino]-7-[(1-ethylpiperidine-4-yl)methoxy]-6-methoxyquinoline-3-carbonitrile], the melting point was 192 to 195 °C.
With `COc1cc(Nc2c(C#N)cnc3cc(OCC4CCNCC4)c(OC)cc23)c(Cl)cc1Cl` [Example 53, 4-[(2,4-Dichloro-5-methoxyphenyl)amino]-6-methoxy-7-(piperidin-4-ylmethoxy)quinoline-3-carbonitrile], the melting point was 134 to 138 °C.
In the case of `COc1cc(Nc2c(C#N)cnc3cc(NCCCN(C)C)c(OC)cc23)c(Cl)cc1Cl` [Example 54, 4-[(2,4-Dichloro-5-methoxyphenyl)amino]-7-{[3-(dimethylamino)propyl]amino}-6-methoxyquinoline-3-carbonitrile] it was 165 to 167 °C.
Regarding `COc1cc(Nc2c(C#N)cnc3cc(N(C)CCCN(C)C)c(OC)cc23)c(Cl)cc1Cl` [Example 55, 4-[(2,4-Dichloro-5-methoxyphenyl)amino]-7-{[3-(dimethylamino)propyl](methyl)amino]-6-methoxyquinoline-3-carbonitrile], the melting point was 116 to 117 °C.
In the case of `COCCNc1cc2ncc(C#N)c(Nc3cc(OC)c(Cl)cc3Cl)c2cc1OC` [Example 56, 4-[(2,4-Dichloro-5-methoxyphenyl)amino]-6-methoxy-7-[(2-methoxyethyl)amino]quinoline-3-carbonitrile] it was 165 to 166 °C; in that of `COc1cc2c(Nc3ccc(Oc4cccnc4)cc3)c(C#N)cnc2cc1OCC1CCN(C)CC1` [Example 57, 6-Methoxy-7-(1-methyl-piperidin-4-ylmethoxy)-4-{[4-(pyridin-3-yloxy)-phenyl]amino}quinoline-3-carbonitrile], 182 to 184 °C.
